B1: VTN: vitronectin, first coating matrix that supports cell adhesion (protein, UniProt P04004 20-478, looked up)
Vitronectin: DQESCKGRCTEGFNVDKKCQCDELCSYYQSCCTDYTAECKPQVTRGDVFTMPEDEYTVYDDGEEKNNATVHEQVGGPSLTSDLQAQSKGNPEQTPVLKPEEEAPAPEVGASKPEGIDSRPETLHPGRPQPPAEEELCSGKPFDAFTDLKNGSLFAFRGQYCYELDEKAVRPGYPKLIRDVWGIEGPIDAAFTRINCQGKTYLFKGSQYWRFEDGVLDPDYPRNISDGFDGIPDNVDAALALPAHSYSGRERVYFFKGKQYWEYQFQHQPSQEECEGSSLSAVFEHFAMMQRDSWEDIFELLFWGRTSAGTRQPQFISRDWHGVPGQVDAAMAGRIYISGMAPRPSLAKKQRFRHRNRKGYRSQRGHSRGRNQNSRRPSRATWLSLFSSEESNLGANNYDDYRMDWLVPATCEPIQSVFFFSGDKYYRVNLRTRRVDTVDPPYPRSIAQYWLGCPAPGHL

Tested on: imDAPs
Experiment: imDAP expansion: cell morphology, cell number (Vi-cell cytometer), expansion fold, Population Doubling Time
Format: cell-based, human
Settings: for attachment and morphology of imDAPs on the coated surface: Example 8, coating 1 μg/cm^2, day 4, FIG. 4A
Procedure: imDAPs were produced according to the method described in CN201910169525.0. The imDAPs (P0) were seeded on VTN-coated plates (1 μg/cm^2) at a density of 1×10^5 cells/cm^2 in the expansion medium (50% DMEM/F12, 50% Neurobasal™ medium, 1% (v/v) Glutamax, 2% (v/v) B27 (50×), 0.2 μM LDN193189, 3 μM CHIR99021, 100 ng/mL FGF8b) in the absence or presence of 5 μM Blebbistatin. In case where Blebbistatin is present, Blebbistatin was either removed 24 hrs after plating or present throughout the culture period. The medium was changed every day for 5 days.
imDAPs were produced according to the method described in CN201910169525.0. The imDAPs (P0) were seeded on VTN-coated plates (1 μg/cm^2) at a density of 1×10^5 cells/cm^2 in the expansion medium (50% DMEM/F12, 50% Neurobasal™ medium, 1% (v/v) Glutamax, 2% (v/v) B27 (50×), 3 μM CHIR99021, 100 ng/mL FGF8b, […]) in the absence or presence of 0.2 μM LDN193189. The medium was changed every day for 5 days.
imDAPs were produced according to the method described in CN201910169525.0. The imDAPs (P0) were seeded on VTN-coated plates (1 μg/cm^2) at a density of 1×10^5 cells/cm^2 in the expansion medium (50% DMEM/F12, 50% Neurobasal™ medium, 1% (v/v) Glutamax, 2% (v/v) B27 (50×), 0.2 μM LDN193189, 3 μM CHIR99021, 100 ng/mL FGF8b, 5 μM Blebbistatin). The medium was changed every day. When imDAPs reach 100% confluence (4-5 days), cells were passaged enzymatically with 1× TrypLE, centrifuged at 250 g for 5 minutes, counted and replaced on new VTN-coated plates (1 μg/cm^2) at a density of 1×10^5 cells/cm^2 in the expansion medium. imDAPs were continuously expanded for 6 passages. At each passage, imDAPs were harvested at an expansion fold 5˜10 (over the initial number of imDAPs plated).
imDAPs were produced according to the method described in CN201910169525.0. The imDAPs (P0) were seeded on DLL4-coated ([…]), VTN-coated (1 μg/cm^2) and DLL4/VTN-coated ([…]) plates at a low density of 1×10^4 cells/cm^2 respectively, and cultured in the expansion medium in the absence or presence of 5 µM SB431542. Medium was replaced every 3rd day until reaching 100% confluence (6 days) for cell collection. The typical cell morphology on day 4 was recorded (FIG. 4A). The cell number of each group was counted by Vi-cell cytometer (FIG. 4B). The cells of each group were stained with Foxa2-PE antibody (BD, #561589), the percentage of Foxa2+ imDAPs were analyzed by flow cytometry (FIG. 4C). The expansion medium used in this example contained the following components: 50% DMEM/F12, 50% Neurobasal™ medium, 1% (v/v) Glutamax, 1% (v/v) B27, 50 μg/ml ascorbic acid, 0.2 μM LDN193189, 100 ng/ml FGF8b, 3 μM CHIR99021 and 10 μM Y27632.
imDAPs were produced according to the method described in CN201910169525.0. The imDAPs (P0) were seeded on DLL4/VTN-coated (1 μg/cm^2 for each) plates at a low density of 1×10^4 cells/cm^2, and cultured in the expansion medium (EM1, EM2, EM3, EM4). Medium was replaced every 3rd day until reaching 100% confluence (6 days) for cell collection. EM1 used in Example 9 contained the following components: 50% DMEM/F12, 50% Neurobasal™ medium, 1% (v/v) Glutamax, 1% (v/v) B27 (50×), […], 3 μM CHIR99021, 5 μM SB431542 and 10 μM Y27632. EM2 used in Example 9 contained the following components: 50% DMEM/F12, 50% Neurobasal™ medium, 1% (v/v) Glutamax, 1% (v/v) B27 (50×), 50 μg/ml ascorbic acid, […] LDN193189, 3 μM CHIR99021, 5 μM SB431542 and 10 μM Y27632. EM3 used in Example 9 contained the following components: 50% DMEM/F12, 50% Neurobasal™ medium, 1% (v/v) Glutamax, 1% (v/v) B27 (50×), 50 μg/mL ascorbic acid, […], 100 ng/ml FGF8b, 3 μM CHIR99021, 5 μM SB431542 and 10 μM Y27632. EM4 used in Example 9 contained the following components: 50% DMEM/F12, 50% Neurobasal™ medium, 1% (v/v) Glutamax, 1% (v/v) B27 (50×), 50 μg/ml ascorbic acid, 0.2 μM LDN193189, 10 ng/ml FGF2, 3 μM CHIR99021, 5 μM SB431542 and 10 μM Y27632. […]

Molecule	cell morphology of expanded imDAPs (Example 2, with vs without 0.2 μM LDN193189, VTN-coated plates, 5 days, FIG. 1B)	imDAP expansion (overall conclusion) (Example 9)	cell number during expansion (Example 9, added to medium with CHIR99021, SB431542 and Y27632, DLL4/VTN-coated, 6 days, FIG. 5B)	attachment and morphology of imDAPs on the coated surface
c1ccc2c(-c3cnn4cc(-c5ccc(N6CCNCC6)cc5)cnc34)ccnc2c1 [LDN193189]	cultured without LDN193189 showed more flattened morphology	had no additional effects on imDAP expansion	had no additional effect on increasing the cell number during expansion	–
DLL4: Notch agonist used as second coating matrix	–	–	–	could not support the attachment of imDAPs
B1	–	–	–	showed flattened morphology

Source: patent publication US12391919B2, “Culture medium, coating matrix and method for maturing midbrain dopaminergic progenitor cells” (NUWACELL BIOTECHNOLOGIES CO., LTD., priority 2022, dated 2025)
